Laboratory results from BindingDB's records for PubMed 33316752 (University of Sharjah, 2021).

Biological target: RAF proto-oncogene serine/threonine-protein kinase (Homo sapiens, UniProt P04049)
Assay: Inhibition of RAF1 (unknown origin) incubated for 40 mins by scintillation counting analysis

Sequence of RAF proto-oncogene serine/threonine-protein kinase (P04049 whole entry): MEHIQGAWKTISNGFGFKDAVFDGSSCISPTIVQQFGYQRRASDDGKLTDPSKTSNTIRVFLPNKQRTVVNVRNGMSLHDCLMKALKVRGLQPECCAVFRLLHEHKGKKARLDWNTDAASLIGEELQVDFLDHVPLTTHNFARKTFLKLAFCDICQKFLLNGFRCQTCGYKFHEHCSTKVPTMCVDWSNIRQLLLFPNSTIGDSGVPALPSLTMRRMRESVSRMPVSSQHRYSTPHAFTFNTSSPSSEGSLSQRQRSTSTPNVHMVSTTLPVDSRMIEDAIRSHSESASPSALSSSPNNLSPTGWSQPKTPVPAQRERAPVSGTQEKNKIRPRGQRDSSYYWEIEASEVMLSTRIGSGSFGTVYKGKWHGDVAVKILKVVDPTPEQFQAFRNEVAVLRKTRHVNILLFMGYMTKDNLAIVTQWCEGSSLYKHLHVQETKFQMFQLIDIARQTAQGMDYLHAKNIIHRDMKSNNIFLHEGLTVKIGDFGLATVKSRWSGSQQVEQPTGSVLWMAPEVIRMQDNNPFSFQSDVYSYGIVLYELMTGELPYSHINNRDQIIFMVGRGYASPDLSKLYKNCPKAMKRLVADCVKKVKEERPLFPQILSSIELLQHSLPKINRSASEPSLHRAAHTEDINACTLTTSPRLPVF

SMILES: O=C(NCCNc1nccc(-c2c(-c3cccc(O)c3)nc3sccn23)n1)c1ccccc1
- IC50: 8.2 nM
